Results as given in US12667583B2, “Method for preventing or treating a cornavirus infectious disease” (HENAN GENUINE BIOTECH CO., LTD., priority 2020, dated 2026).
Entries after “also recorded” stand apart in the source; their conditions may differ.

Key:
in vitro = settings: human
2019-nCoV (COVID-19) = experiment: Inhibitory effect against 2019-nCoV (COVID-19) viruses in Huh 7 cell model, viral RNA by qRT-PCR; type: cell-based; settings: for SI: CC50/EC50, Huh 7 cells; for EC50: viral RNA copies in supernatant, 48 h
Experimental: The antiviral activity assay was performed on a Huh 7 cell model. Three replicate wells were set for each assay and the assay was repeated three times in total.
1) In each well of a 24-well cell culture plate, 5×10^4 Huh 7 cells were inoculated. Under the culture conditions of 37° C. and 5% CO2, when the confluence reached 60%, 200 μL of 2019-nCoV (COVID-19) virus solution diluted with a DMEM medium containing 2% FBS were added to each well respectively according to the multiplicity of infection MOI of 0.005. After adsorption for 1 h in a 5% CO2 incubator at 37° C., the virus solution was discarded. The positive control drug and the Azvudine amine phosphate prodrug CL-236 were subjected to 2-fold dilution with a DMEM medium containing 2% FBS from the maximum non-toxic concentration, and added to the cell plate at 500 μL/well. Meanwhile, a control group (drug-free group) was set and the supernatant virus solution was collected at 48 h after infection.
2) RNA quantification of collected viruses by real-time RT-PCR (qRT-PCR):
From the collected supernatant virus solutions, 140 μL were measured separately, and subjected to RNA extraction according to the instruction of the QIAamp viral RNA mini kit. The qRT-PCR detection was carried out using the One Step TB Green PrimeScript PLUS RT-PCR Kit (Perfect Real Time), and the primers were RBD-qF1: 5′-[…]-3′ (SEQ. ID. NO. 1); and RBD-qR1:5′-[…]-3′(SEQ. ID. NO. 2).
The total volume of the reaction system was 20 μL:10 μL of 2× One Step TB Green RT-PCR Buffer 4, 1.2 μL of TaKaRa Ex Taq HS Mix, 0.4 μL of PrimeScript PLUS RTase Mix, 0.8 μL each of RBD-qF1 and RBD-qR1, 0.4 μL of ROX Reference Dye (50×), 2 μL of viral RNA, and 4.4 μL of RNase Free dH2O. The reaction parameters were as follows: reverse transcription at 42° C. for 5 min, pre-denaturation at 95° C. for 10 s, PCR for 40 cycles including denaturation at 95° C. for 10 s and annealing and extension at 60° C. for 30 s.
3) The inhibition rates of the drug at the concentrations were calculated. Inhibition rate (%)=1−viral RNA copies in experimental group/viral RNA copies in drug-free group×100%. At the same time, the median effective concentration (EC50) and therapeutic index (TI) of the drug were calculated, therapeutic index (TI)=concentration cytotoxicity 50% (CC50)/median effective concentration (EC50).

novel coronaviruses = experiment: in vitro antiviral activity in MRC-5 cells infected with the novel coronaviruses; type: cell-based; settings: MRC5
Source text: The inventors have determined the in vitro antiviral activity of Compound 1 in MRC-5 cells infected with the novel coronaviruses.

AIDS = settings: as an anti-AIDS drug; cited from earlier work
[1] = system: novel coronavirus (COVID-19) pneumonia; experiment: Clinical trial in patients with novel coronavirus (COVID-19) pneumonia; settings: for Clinical advantage versus control (nucleic acid clearance rate, course of clearance, cure rate, course of cure): compared with the conventional treatment (Kaletra control)
[2] = Severe acute respiratory syndrome coronavirus 2, Huh 7 cells
[3] = individual patients, 10 per group, Azvudine 5 mg daily oral, Kaletra + arbidol + interferon control

SMILES | CC50 (in vitro) | SI (2019-nCoV (COVID-19)) | EC50 (2019-nCoV (COVID-19); [2]) | EC50 (novel coronaviruses) | Safety in phase II clinical trials (AIDS) | Clinical advantage versus control (nucleic acid clearance rate, course of clearance, cure rate, course of cure) [1] | Clinical advantage versus control (nucleic acid clearance rate, course of clearance, cure rate, course of cure) ([1]; listed as compound of formula (1)) | Drug-related toxic and side effects during the treatment ([1]; human, in vivo) | From inclusion confirmed by nucleic acid test to clearance [1, 3] | From inclusion confirmed by nucleic acid test to discharge [1, 3] | Patients discharged within 8 days ([1]; of 10 patients in the group) | Patients turned negative by the nucleic acid test ([1]; of 10 patients in the group) | Time to turn negative after start of treatment ([1]; one patient who had failed supportive treatment with Kaletra) | inhibition at 0.1 µM (2019-nCoV (COVID-19); Severe acute respiratory syndrome coronavirus 2, 0.1 uM, Huh 7 cells, MOI 0.005, 48 h after infection, read-out: Virus Inhibition Rate (%)) | inhibition at 0.4 µM (2019-nCoV (COVID-19); Severe acute respiratory syndrome coronavirus 2, 0.4 uM, Huh 7 cells, MOI 0.005, 48 h after infection, read-out: Virus Inhibition Rate (%)) | inhibition at 1.6 µM (2019-nCoV (COVID-19); Severe acute respiratory syndrome coronavirus 2, 1.6 uM, Huh 7 cells, MOI 0.005, 48 h after infection, read-out: Virus Inhibition Rate (%)) | inhibition at 6.4 µM (2019-nCoV (COVID-19); Severe acute respiratory syndrome coronavirus 2, 6.4 uM, Huh 7 cells, MOI 0.005, 48 h after infection, read-out: Virus Inhibition Rate (%)) | inhibition at 25.6 µM (2019-nCoV (COVID-19); Severe acute respiratory syndrome coronavirus 2, 25.6 uM, Huh 7 cells, MOI 0.005, 48 h after infection, read-out: Virus Inhibition Rate (%)) | inhibition at 102.4 µM (2019-nCoV (COVID-19); Severe acute respiratory syndrome coronavirus 2, 102.4 uM, Huh 7 cells, MOI 0.005, 48 h after infection, read-out: Virus Inhibition Rate (%))
CCC(CC)COC(=O)[C@H](C)N[P@](=O)(OC[C@H]1O[C@@](C#N)(c2ccc3c(N)ncnn23)[C@H](O)[C@@H]1O)Oc1ccccc1 [Remdesivir, reference compound] | > 45 µM | >30.0 | 1.5 µM |  |  |  |  |  |  |  |  |  |  |  |  |  |  |  | 
[N-]=[N+]=NC1(CO)OC(n2ccc(N)nc2=O)C(F)C1O (stereo not shown) [Compound 1, Azvudine] |  |  |  | 25 µM | good safety | significant clinical therapeutic advantages | obvious advantages | no drug-related toxic and side effects were found | Clearance: day 4; also recorded: Clearance: day 2; also recorded: one week; also recorded: Clearance: day 3 | Discharge: day 7; also recorded: Discharge: day 6; also recorded: Discharge: day 8; also recorded: Discharge: day 5 | seven | 10 | three days |  |  |  |  |  | 
CC(C)OC(=O)[C@H](C)NP(=O)(OCC1(N=[N+]=[N-])OC(n2ccc(N)nc2=O)C(F)C1O)Oc1ccccc1 (stereo partly shown) [CL-236] | 66.2 µM | 20.7 | 3.2 µM |  |  |  |  |  |  |  |  |  |  | 9.38% | 18.8% | 37.5% | 65.6% | 75% | 81.2%
